Some results are limits rather than exact numbers.

2 compounds from patent US20250344698A1, “A METHOD OF CONTROLLING WEEDS” (SYNGENTA CROP PROTECTION AG, priority 2022, published 2025) can be followed below.

The subject of this test is PPO inhibitor herbicide resistant Amaranthus tuberculatus homozygous for deletion of glycine at codon 210 in PPX2L. Put plainly: Postemergence glasshouse test, dead or alive assessment, codon 210 deletion population. Format: in vivo. Conditions: 14 days after application; for use rate at or beyond which no plants survived application: postemergence.

For the compound `CCOC(=O)C1(C)CC(c2cc(-n3c(=O)cc(C(F)(F)F)n(C)c3=O)c(F)cc2Cl)=NO1` (stereo not drawn) [Compound 8, 3-(2-chloro-4-fluoro-5-(3-methyl-2,6-dioxo-4-trifluoromethyl-3,6-dihydropyrimidin-1(2H)-yl)phenyl)-5-methyl-4,5-dihydroisoxazole-5-carboxylic acid ethyl ester], the “use rate at or beyond which no plants survived application” value is reported as no less than 64 g ai/ha^−1. Further, under “2 g ai/ha^−1 postemergence”, the “Average % Survival of 16 repetitions” value turned out to be 100%. Also, the “Average % Survival of 16 repetitions” value (4 g ai/ha^−1 postemergence) was 100%. Besides, under “8 g ai/ha^−1 postemergence”, the “Average % Survival of 16 repetitions” value was found to be 75%. For the same compound, the “Average % Survival of 16 repetitions” value (16 g ai/ha^−1 postemergence) came out at 12.5%. Also, the “Average % Survival of 16 repetitions” value (32 g ai/ha^−1 postemergence) stood at 12.5%. Besides, the “Average % Survival of 16 repetitions” value (64 g ai/ha^−1 postemergence) is on record as 0%. Besides, the “Average % Survival of 16 repetitions” value (128 g ai/ha^−1 postemergence) turned out to be 0%. Moreover, where the note is “256 g ai/ha^−1 postemergence”, the “Average % Survival of 16 repetitions” value was found to be 0%.

Take `CS(=O)(=O)NC(=O)c1cc(Oc2ccc(C(F)(F)F)cc2Cl)ccc1[N+](=O)[O-]` [Fomesafen]: the “use rate at or beyond which no plants survived application” value is no less than 210 g ai/ha^−1. Further, for the setting “0.82 g ai/ha^−1 postemergence”, the “Average % Survival of 16 repetitions” value amounted to 100%. The “Average % Survival of 16 repetitions” value (1.64 g ai/ha^−1 postemergence) is 100%. For the same compound, the “Average % Survival of 16 repetitions” value (3.28 g ai/ha^−1 postemergence) is given as 100%. Further, the “Average % Survival of 16 repetitions” value (6.56 g ai/ha^−1 postemergence) is recorded as 100%. Further, the “Average % Survival of 16 repetitions” value (13.13 g ai/ha^−1 postemergence) came to 100%. For the same compound, the “Average % Survival of 16 repetitions” value (26.25 g ai/ha^−1 postemergence) worked out at 100%. Also, the “Average % Survival of 16 repetitions” value (52.5 g ai/ha^−1 postemergence) came to 81.3%. Further, the “Average % Survival of 16 repetitions” value (105 g ai/ha^−1 postemergence) was determined as 62.5%. Moreover, the “Average % Survival of 16 repetitions” value (210 g ai/ha^−1 postemergence) was determined as 0%. The “Average % Survival of 16 repetitions” value (420 g ai/ha^−1 postemergence) is 0%. In addition, the “Average % Survival of 16 repetitions” value (840 g ai/ha^−1 postemergence) amounted to 0%.
